# Data as given in patent US20040197299A1, “Topically applicable cosmetic/dermatological compositions comprising hydrolase polypeptides having amidase activity and/or products modulating the activity thereof” (SOCIETE L'OREAL, S.A., priority 2003, published 2004).
# Key:
# corneodesmosin = assay: Corneodesmosin signal after incubation of SC acetone powder with semi-purified AGA (immunoblot); type: biochemical; details: 8 hours, 37° C., pH 8
# Description: An SC acetone powder obtained by the “varnish stripping” technique as described by Mehul B. et al. (2000, The Journal of Biological Chemistry, Vol. 275, No. 17, 12841-12847) is incubated with a semi-purified AGA extract in the presence or otherwise of 5 mM L-asparagine at the rate of 100 μl of incubation solution per mg of acetone powder. The incubations are carried out in 0.1 M Tris-HCl buffer, pH 8, at 37° C., for 8 hours, with stirring. A test t0 is made as well as a control: buffer alone.
# The soluble proteins of each sample are then extracted under denaturing conditions (SDS, DTT and boiling). The total proteins are assayed according to the Bradford method and the concentrations are aligned at 0.6 mg/ml in Laemmli extraction buffer.
# An SDS-PAGE separation is then carried out, followed by a transfer onto PVDF membrane marketed by Millipore. The corneodesmosin is immunodetected with the monoclonal antibody G3619 described in Serre G. et al. (1991, J. Invest. Dermatol., 97, 1061-1072) diluted 1/12500.
# Each blot is then stained with a 0.03% amido black solution (SIGMA) in order to normalize the quantity of corneodesmosin relative to a quantification of the keratins.
# FIG. 2 presents the variation of the corneodesmosin signal after incubation of various quantities of semi-purified AGA with an acetone powder for 8 hours.
# [1] = molecular target: T1, AGA activity purified from the SC (aspartylglucosaminidase, EC 3.5.1.26) (Homo sapiens, UniProt P20933); assay: AGA activity assay with the fluorescent substrate Asp-AMC; type: biochemical; details: L-asparagine used at 1.25 mM
# T1 construct: led to the identification of the A chain of AGA (band of 24 kDa); and of the B chain of AGA (bands of 16 and 15 kDa); from tissue; host or cells: human stratum corneum, scraped from the anterior surface of the leg
# T1 sequence (P20933 24-205 limits assumed): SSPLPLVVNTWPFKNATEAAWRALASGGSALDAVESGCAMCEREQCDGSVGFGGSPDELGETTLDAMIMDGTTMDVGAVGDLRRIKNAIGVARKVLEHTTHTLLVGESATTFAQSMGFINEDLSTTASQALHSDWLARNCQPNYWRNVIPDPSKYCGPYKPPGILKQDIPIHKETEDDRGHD
# T1 sequence (P20933 206-346 limits assumed): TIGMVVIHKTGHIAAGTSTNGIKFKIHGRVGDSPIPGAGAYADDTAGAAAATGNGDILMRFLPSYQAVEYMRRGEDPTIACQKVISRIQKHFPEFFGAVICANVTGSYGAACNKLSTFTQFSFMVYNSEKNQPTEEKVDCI
# Description: The purification of AGA is monitored by assaying of activity with the fluorescent substrate L-aspartic acid beta(7-amido-4-methylcoumarin) (Asp-AMC) according to the method described by Mononen I. T. et al., 1993, Analytical Biochemistry, 208, 372-374. 10 μl of each eluted fraction are incubated for 24 h at 37° C. with 100 μl of Asp-AMC substrate diluted to 1 mM in 0.1 M Tris-HCl buffer, pH 8. The fluorescence is quantified on a Biolumin reader (excitation/emission: 340/450 nm).
# The AGA activity was assayed with the substrate Asp-AMC in various SC extracts.
Compound,variation of the quantity of corneodesmosin (prodesquamating effect) (corneodesmosin; SC acetone powder incubated with increasing quantities of semi-purified AGA),inhibition of the AGA activity purified from the SC [1],"inhibition of the AGA-induced decrease in corneodesmosin (corneodesmosin; L-asparagine at 5 mM, 10 μl of AGA condition)"
aspartylglucosaminidase AGA (EC 3.5.1.26),decrease in the quantity of corneodesmosin,–,–
NC(=O)C[C@H](N)C(=O)O [L-asparagine],–,inhibit the AGA activity,inhibits this effect
